Results from ChEMBL document CHEMBL6109128, “Copper-KRAS-COX2 Axis: A Therapeutic Vulnerability in Pancreatic Cancer” (J Med Chem, 2025).
Active and inactive are the calls of the source. No cut-off for these calls is given here.

How the values were obtained:
[1] = test system: Panc02; assay: Synergistic antiproliferative activity against mouse Panc02 cells harboring wild type KRAS at 0.01 to 3 uM in presence of MRTX1133; assay type: functional, cell-based; settings: dose 0.01-3 µM
[2] = test system: MIA PaCa-2; assay: Synergistic antiproliferative activity against human MIA PaCa-2 cells assessed as inhibition of colony formation at up to 1 uM incubated for 6 days in presence of valdecoxib; assay type: functional, cell-based; settings: time 6.0 day
[3] = test system: MIA PaCa-2; assay: Induction of apoptosis in human MIA PaCa-2 cells assessed as upregulation of caspase 9 level at 10 uM measured for 48 hrs by Western blot analysis; assay type: functional, cell-based
[4] = test system: Panc02; assay: Synergistic antiproliferative activity against mouse Panc02 cells assessed as inhibition of colony formation at up to 1 uM incubated for 6 days in presence of celecoxib; assay type: functional, cell-based; settings: time 6.0 day
[5] = Clearance in CD-1 mouse at 15 mg/kg, iv measured up to 24 hrs by LC-MS/MS analysis; assay type: ADME, organism-based; settings: in vivo
[6] = test system: BXPC-3; assay: Cytotoxicity against human BXPC-3 cells by MTT assay; assay type: functional, cell-based
[7] = test system: MIA PaCa-2; assay: Synergistic antiproliferative activity against human MIA PaCa-2 cells assessed as inhibition of colony formation at up to 1 uM incubated for 6 days in presence of lumira-coxib; assay type: functional, cell-based; settings: time 6.0 day
[8] = test system: KPC2; assay: Synergistic antiproliferative activity against mouse KPC2 cells at 0.01 to 3 uM in presence of MRTX1133; assay type: functional, cell-based; settings: dose 0.01-3 µM
[9] = test system: BXPC-3; assay: Induction of apoptosis in human BXPC-3 cells assessed as increase in clonogenic survival up to 0.5 uM incubated for 6 days in presence of Z-VAD-FMK by crystal violet staining based analysis; assay type: functional, cell-based; settings: time 6.0 day
[10] = test system: BXPC-3; assay: Synergistic antiproliferative activity against human BXPC-3 cells assessed as inhibition of colony formation at up to 1 uM incubated for 6 days in presence of celecoxib; assay type: functional, cell-based; settings: time 6.0 day
[11] = test system: HCT-116; assay: Synergistic antiproliferative activity against human HCT-116 cells assessed as inhibition of colony formation at up to 1 uM incubated for 6 days in presence of MK-663; assay type: functional, cell-based; settings: time 6.0 day
[12] = test system: MIA PaCa-2; assay: Cytotoxicity against human MIA PaCa-2 cells by MTT assay; assay type: functional, cell-based
[13] = AUC (0 to infinity) in CD-1 mouse at 30 mg/kg, po measured up to 24 hrs by LC-MS/MS analysis; assay type: ADME, organism-based; settings: in vivo
[14] = test system: MIA PaCa-2; assay: Induction of necroptosis in human MIA PaCa-2 cells assessed as increase in p-RIP3 level at 10 uM incubated for 1 hr by Western blot analysis; assay type: functional, cell-based
[15] = Cytotoxicity against mouse KPC2 cells by MTT assay; assay type: functional, cell-based
[16] = Metabolic stability in human liver microsome assessed as half life measured up to 60 mins by LC-MS/MS analysis; assay type: ADME; settings: liver microsomes
[17] = test system: HCT-116; assay: Synergistic antiproliferative activity against human HCT-116 cells assessed as inhibition of colony formation at up to 1 uM incubated for 6 days in presence of lumi-racoxib; assay type: functional, cell-based; settings: time 6.0 day
[18] = test system: MIA PaCa-2; assay: Synergistic antiproliferative activity against human MIA PaCa-2 cells assessed as inhibition of colony formation at up to 1 uM incubated for 6 days in presence of rotec-oxib; assay type: functional, cell-based; settings: time 6.0 day
[19] = test system: CT26; assay: Synergistic antiproliferative activity against mouse CT26 cells at 0.01 to 3 uM in presence of MRTX1133; assay type: functional, cell-based; settings: dose 0.01-3 µM
[20] = AUC in CD-1 mouse at 15 mg/kg, iv measured up to 24 hrs by LC-MS/MS analysis; assay type: ADME, organism-based; settings: in vivo
[21] = test system: PANC-1; assay: Synergistic antiproliferative activity against human PANC-1 cells assessed as inhibition of colony formation at up to 1 uM incubated for 6 days in presence of valdecoxib; assay type: functional, cell-based; settings: time 6.0 day
[22] = test system: HCT-116; assay: Induction of apoptosis in human HCT-116 cells assessed as upregulation of cleaved PARP level at 1 uM measured for 24 hrs in presence of CuSO4 by Western blot analysis; assay type: functional, cell-based
[23] = Half life in CD-1 mouse at 15 mg/kg, iv measured up to 24 hrs by LC-MS/MS analysis; assay type: ADME, organism-based; settings: in vivo
[24] = test system: KPC2; assay: Synergistic antiproliferative activity against mouse KPC2 cells assessed as inhibition of colony formation at up to 1 uM incubated for 6 days in presence of celecoxib; assay type: functional, cell-based; settings: time 6.0 day
[25] = test system: HCT-116; assay: Induction of apoptosis in human HCT-116 cells assessed as increase in clonogenic survival up to 1 uM incubated for 6 days in presence of necrostatin-1 by crystal violet staining based analysis; assay type: functional, cell-based; settings: time 6.0 day
[26] = test system: HCT-116; assay: Induction of autophagy in human HCT-116 cells assessed as cell death at up to 1 uM incubated for 6 days in presence of chloroquine; assay type: functional, cell-based; settings: time 6.0 day
[27] = test system: MIA PaCa-2; assay: Synergistic antiproliferative activity against human MIA PaCa-2 cells assessed as inhibition of colony formation at up to 1 uM in presence of ZnCl2; assay type: functional, cell-based
[28] = test system: HCT-116; assay: Synergistic antiproliferative activity against human HCT-116 cells assessed as inhibition of colony formation at up to 1 uM incubated for 6 days in presence of napabucasin; assay type: functional, cell-based; settings: time 6.0 day
[29] = test system: SU.86.86; assay: Cytotoxicity against human SU-86-86 cells by MTT assay; assay type: functional, cell-based
[30] = test system: MIA PaCa-2; assay: Cytotoxicity against human MIA PaCa-2 cells assessed as cell death up to 1 uM incubated for 6 days in presence of NAC; assay type: functional, cell-based; settings: time 6.0 day
[31] = Cmax in CD-1 mouse at 15 mg/kg, iv measured up to 24 hrs by LC-MS/MS analysis; assay type: ADME, organism-based; settings: in vivo
[32] = AUC in CD-1 mouse at 30 mg/kg, po measured up to 24 hrs by LC-MS/MS analysis; assay type: ADME, organism-based; settings: in vivo
[33] = test system: PANC-1; assay: Antiproliferative activity against human PANC-1 cells assessed as cell death incubated for 6 hrs in presence of NS3694; assay type: functional, cell-based
[34] = Oral bioavailability in CD-1 mouse at 30 mg/kg measured up to 24 hrs by LC-MS/MS analysis; assay type: ADME, organism-based; settings: in vivo
[35] = Metabolic stability in mouse liver microsome assessed as half life measured up to 60 mins by LC-MS/MS analysis; assay type: ADME; settings: liver microsomes
[36] = test system: HCT-116; assay: Induction of necroptosis in human HCT-116 cells assessed as increase in p-RIP3 level at 10 uM incubated for 1 hr by Western blot analysis; assay type: functional, cell-based
[37] = test system: CT26; assay: Antitumor activity against mouse CT26 cells implanted in BALB/c mouse assessed as tumor growth inhibition at 50 to 100 mg/kg, po administered for 14 days in presence of celecoxib; assay type: functional, organism-based; settings: dose 50-100 mg/kg, time 14.0 day
[38] = Drug concentration in mouse plasma at 15 mg/kg, iv measured at 7 hrs; assay type: ADME, organism-based
[39] = Toxicity in BALB/c mouse assessed as liver damage at 20 mg/kg, po measured after 29 days by H and E staining based analysis; assay type: organism-based; settings: in vivo, 696 h, time 29 day
[40] = Drug concentration in mouse kidney at 30 mg/kg, po measured at 7 hrs; assay type: ADME, organism-based; settings: read-out: Ct
[41] = Drug concentration in mouse plasma at 30 mg/kg, po measured at 24 hrs; assay type: ADME, organism-based
[42] = test system: CT26; assay: Antitumor activity against mouse CT26 cells implanted in BALB/c mouse assessed as inhibition of tumor growth at 100 mg/kg, po measured after 14 days; assay type: functional, organism-based; settings: time 14.0 day
[43] = Toxicity in BALB/c mouse assessed as maximum tolerated dose at IV measured for 7 days; settings: in vivo, time 7 day

C[C@@H]1OCC2(CCN(c3cnc(C(=O)Nc4cc(F)cc5cccnc45)cn3)CC2)[C@@H]1N
Activity [1]: inactive | Activity [2]: Active | Activity [3]: Active | Activity [4]: Active | clearance [5]: 37.7 mL/min/kg | IC50 [6]: 8.5 µM | Activity [7]: Active | Activity [8]: Active | Activity [9]: Active | Activity [10]: Active | Activity [11]: Active | IC50 [12]: 1.9 µM | AUC(0-inf) [13]: 6800 ng·h/mL | Activity [14]: Active | IC50 [15]: 1.9 µM | half-life [16]: > 1 h | Activity [17]: Active | Activity [18]: Active | Activity [19]: Active | AUC at 24 h [20]: 6010 ng·h/mL | Activity [21]: Active | Activity [22]: Active | half-life [23]: 2.8 h | Activity [24]: Active | Activity [25]: Active | Activity [26]: Active | Activity [27]: Active | Activity [28]: Active | IC50 [29]: 0.8 µM | Activity [30]: Active | Cmax [31]: 3460 ng/mL | AUC at 24 h [32]: 6640 ng·h/mL | Activity [33]: Active | bioavailability [34]: 55.2% | half-life [35]: > 1 h | Activity [36]: Active

N[C@@H]1[C@H]2CN(c3cnc(C(=O)Nc4cc(F)cc5cccnc45)cn3)C[C@@H]12
Activity [1]: inactive | Activity [2]: Active | Activity [3]: Active | Activity [4]: Active | clearance [5]: 72.5 mL/min/kg | IC50 [6]: > 10 µM | Activity [7]: Active | Activity [8]: Active | Activity [9]: Active | Activity [10]: Active | Activity [11]: Active | TGI [37]: Active | IC50 [12]: 0.6 µM | AUC(0-inf) [13]: 3810 ng·h/mL | concentration at 7 h [38]: 98 ng/mL | Activity [14]: Active | IC50 [15]: 3.4 µM | half-life [16]: > 1 h | Activity [17]: Active | Activity [18]: Active | Activity [39]: Non-toxic | Activity [19]: Active | concentration at 7 h [40]: 6100 ng/g | AUC at 24 h [20]: 3420 ng·h/mL | Activity [21]: Active | Activity [22]: Active | half-life [23]: 3 h | Activity [24]: Active | Activity [25]: Active | Activity [26]: Active | Activity [27]: Active | Activity [28]: Active | concentration at 24 h [41]: 7 ng/mL | IC50 [29]: 1.1 µM | TGI [42]: Active | MTD at 168 h [43]: 140 mg/kg | Activity [30]: Active | Cmax [31]: 1620 ng/mL | AUC at 24 h [32]: 3780 ng·h/mL | Activity [33]: Active | bioavailability [34]: 55.3% | half-life [35]: > 1 h | Activity [36]: Active
